Like-named read-outs stand apart in the source and are kept apart here.
Experiments:
Assay type in all cases: cell-based
[1] = biological target: T1, NR2F6 LBD (Homo sapiens, UniProt P10588); experiment: NR2F6 LBD transient transfection; details: LBD
T1 construct: expressed in transfected cells
T1 sequence (P10588 165-393 limits assumed): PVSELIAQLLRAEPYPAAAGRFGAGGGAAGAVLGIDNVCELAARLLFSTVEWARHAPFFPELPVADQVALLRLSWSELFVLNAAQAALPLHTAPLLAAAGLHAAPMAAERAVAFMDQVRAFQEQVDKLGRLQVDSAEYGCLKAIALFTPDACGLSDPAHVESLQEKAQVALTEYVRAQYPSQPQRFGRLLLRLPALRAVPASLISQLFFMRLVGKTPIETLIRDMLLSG
In short: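 LBD-transfected cells treated at 40, 10, 2 and 0.5 μM (4 replicates); cytotoxicity measured in parallel, normalized to DMSO (0%) and zero signal (100%). Higher concentrations excluded where signal loss reflected toxicity.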

[2] = test system: HEK293 pGL4; experiment: Firefly_pGL signal, cmpd/DMSO (pGL4 control cells); details: Homo sapiens
[3] = biological target: T2, NR2F6 (Homo sapiens, UniProt P10588); experiment: NR2F6 agonist screening, Firefly signal cmpd/DMSO
T2 construct: expressed in transfected cells; also transient transfection
T2 sequence (P10588 1-404): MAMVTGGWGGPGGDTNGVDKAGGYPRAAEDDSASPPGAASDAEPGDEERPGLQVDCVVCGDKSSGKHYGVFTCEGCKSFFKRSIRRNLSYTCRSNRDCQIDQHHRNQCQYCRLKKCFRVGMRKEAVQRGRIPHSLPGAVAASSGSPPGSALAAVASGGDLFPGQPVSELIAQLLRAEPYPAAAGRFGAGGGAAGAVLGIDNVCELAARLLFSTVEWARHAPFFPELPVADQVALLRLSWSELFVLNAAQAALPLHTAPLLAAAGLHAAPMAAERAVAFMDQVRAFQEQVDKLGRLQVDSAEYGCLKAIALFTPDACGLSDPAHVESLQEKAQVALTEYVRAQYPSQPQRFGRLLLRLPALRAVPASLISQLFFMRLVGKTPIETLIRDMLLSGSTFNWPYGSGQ

[4] = test system: Renilla; experiment: Renilla signal in NR2F6 agonist screening, cmpd/DMSO; details: Renilla, F4
[5] = read-out: Renilla, F4, cmpd/DMSO (mean)
[6] = 1% FBS, read-out: Renilla, F4, 1% FBS, cmpd/DMSO (mean)
[7] = 10% FBS, read-out: Renilla, F4, 10% FBS, cmpd/DMSO (mean)

Compound: CC1CCN([C@H]2CS(=O)(=O)C[C@@H]2S(=O)(=O)c2cccs2)CC1 [Compound D106]
- Firefly LBD, cmpd/DMSO (mean) ([1]; 0.5 uM): 1.2
- Firefly LBD, cmpd/DMSO (mean) ([1]; 2 uM): 1.7
- Firefly LBD, cmpd/DMSO (mean) ([1]; 10 uM): 4.0
- Firefly LBD, cmpd/DMSO (mean) ([1]; 40 uM): 0.7
- fold induction at 0.5 µM ([2]; HEK293, 0.5 uM, pGL4, read-out: Firefly pGL4, cmpd/DMSO (mean)): 1.1
- fold induction at 2 µM ([2]; HEK293, 2 uM, pGL4, read-out: Firefly pGL4, cmpd/DMSO (mean)): 1.6
- fold induction at 10 µM ([2]; HEK293, 10 uM, pGL4, read-out: Firefly pGL4, cmpd/DMSO (mean)): 3.6
- fold induction at 40 µM ([2]; HEK293, 40 uM, pGL4, read-out: Firefly pGL4, cmpd/DMSO (mean)): 0.7
- fold induction at 0.5 µM ([2]; HEK293, pGL4, 1% FBS, 0.5 uM, read-out: Firefly, pGL4, 1% FBS, cmpd/DMSO (mean)): 1.1
- fold induction at 2 µM ([2]; HEK293, pGL4, 1% FBS, 2 uM, read-out: Firefly, pGL4, 1% FBS, cmpd/DMSO (mean)): 1.8
- fold induction at 10 µM ([2]; HEK293, pGL4, 1% FBS, 10 uM, read-out: Firefly, pGL4, 1% FBS, cmpd/DMSO (mean)): 2.8
- fold induction at 40 µM ([2]; HEK293, pGL4, 1% FBS, 40 uM, read-out: Firefly, pGL4, 1% FBS, cmpd/DMSO (mean)): 0.8
- fold induction at 0.5 µM ([2]; HEK293, pGL4, 10% FBS, 0.5 uM, read-out: Firefly, pGL4, 10% FBS, cmpd/DMSO (mean)): 0.9
- fold induction at 2 µM ([2]; HEK293, pGL4, 10% FBS, 2 uM, read-out: Firefly, pGL4, 10% FBS, cmpd/DMSO (mean)): 1.2
- fold induction at 10 µM ([2]; HEK293, pGL4, 10% FBS, 10 uM, read-out: Firefly, pGL4, 10% FBS, cmpd/DMSO (mean)): 2.7
- fold induction at 40 µM ([2]; HEK293, pGL4, 10% FBS, 40 uM, read-out: Firefly, pGL4, 10% FBS, cmpd/DMSO (mean)): 1.2
- Firefly F4, cmpd/DMSO (mean) ([3]; 0.5 uM): 1.5
- Firefly F4, cmpd/DMSO (mean) ([3]; 2 uM): 2.3
- Firefly F4, cmpd/DMSO (mean) ([3]; 10 uM): 5.4
- Firefly F4, cmpd/DMSO (mean) ([3]; 40 uM): 0.8
- F4, Firefly/Renilla for S/B(F4) > 3 ([3]; 1% FBS, 10 uM): 2.5
- Firefly, F4/pGL4 for S/B(F4) > 3 ([3]; 1% FBS, 10 uM): 1.7
- F4, Firefly/Renilla for S/B(F4) > 3 ([3]; 10% FBS, 10 uM): 3.6
- Firefly, F4/pGL4 for S/B(F4) > 3 ([3]; 10% FBS, 10 uM): 2.7
- Firefly, F4, 1% FBS, cmpd/DMSO (mean) ([3]; 1% FBS, 0.5 uM): 0.9
- Firefly, F4, 1% FBS, cmpd/DMSO (mean) ([3]; 1% FBS, 2 uM): 1.9
- Firefly, F4, 1% FBS, cmpd/DMSO (mean) ([3]; 1% FBS, 10 uM): 4.6
- Firefly, F4, 1% FBS, cmpd/DMSO (mean) ([3]; 1% FBS, 40 uM): 0.5
- Firefly, F4, 10% FBS, cmpd/DMSO (mean) ([3]; 10% FBS, 0.5 uM): 1.6
- Firefly, F4, 10% FBS, cmpd/DMSO (mean) ([3]; 10% FBS, 2 uM): 1.4
- Firefly, F4, 10% FBS, cmpd/DMSO (mean) ([3]; 10% FBS, 10 uM): 7.1
- Firefly, F4, 10% FBS, cmpd/DMSO (mean) ([3]; 10% FBS, 40 uM): 1.7
- Activity, cmpd/DMSO ([3]; Table 31): 5.2
- fold induction at 0.5 µM [4, 5]: 1
- fold induction at 2 µM [4, 5]: 1.2
- fold induction at 10 µM [4, 5]: 1.7
- fold induction at 40 µM [4, 5]: 0.5
- fold induction at 0.5 µM [4, 6]: 1.2
- fold induction at 2 µM [4, 6]: 1.4
- fold induction at 10 µM [4, 6]: 1.9
- fold induction at 40 µM [4, 6]: 1.1
- fold induction at 0.5 µM [4, 7]: 1.2
- fold induction at 2 µM [4, 7]: 1.1
- fold induction at 10 µM [4, 7]: 2
- fold induction at 40 µM [4, 7]: 2
